Results as given in ChEMBL document CHEMBL1201862, “PubChem BioAssay data set” (2004).
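48-hour exposure; five concentrations; linearly interpolated endpoints. Abbreviation: GI50, concentration required for 50% inhibition of growth.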 Active and inactive are the calls of the source. No stated cut-off is given here; in the data, active = GI50 up to about 1.1 µM and inactive = higher.

Assays:
Assay in all cases: NCI anticancer screen, dose series, 48 h
A498 = test system: A498
SR = test system: SR
SK-MEL-28 = test system: SK-MEL-28
OVCAR-5 = test system: OVCAR-5
HCT-116 = test system: HCT-116
SW-620 = test system: SW-620
MDA-N = test system: MDA-N
CAKI-1 = test system: CAKI-1
UACC-257 = test system: UACC-257
U-251 = test system: U-251
DU-145 = test system: DU-145
OVCAR-8 = test system: OVCAR-8
HOP-62 = test system: HOP-62
NCI-H23 = test system: NCI-H23
NCI/ADR-RES = test system: NCI/ADR-RES
HCT-15 = test system: HCT-15
HT-29 = test system: HT-29
EKVX = test system: EKVX

SMILES	GI50 (A498)	GI50 (SR)	GI50 (SK-MEL-28)	GI50 (OVCAR-5)	GI50 (HCT-116)	GI50 (SW-620)	GI50 (MDA-N)	GI50 (CAKI-1)	GI50 (UACC-257)	GI50 (U-251)	GI50 (DU-145)	GI50 (OVCAR-8)	GI50 (HOP-62)	GI50 (NCI-H23)	GI50 (NCI/ADR-RES)	GI50 (HCT-15) [µM]	GI50 (HT-29)	GI50 (EKVX)
Cc1ccc(OCC2=NN3C(=O)/C(=C\c4ccc([N+](=O)[O-])o4)SC3N2)cc1 (stereo not given)	17.4 µM (inactive)	2.94 µM (inactive)	12.7 µM (inactive)	19.2 µM (inactive)	3.63 µM (inactive)	2.93 µM (inactive)	4.3 µM (inactive)	14.6 µM (inactive)	12.8 µM (inactive)	15.8 µM (inactive)	5.68 µM (inactive)	3.66 µM (inactive)	16.6 µM (inactive)	11.9 µM (inactive)	9.04 µM (inactive)	2.42	6.7 µM (inactive)	12.1 µM (inactive)
N#CCCN(CCC#N)c1ccc(/C=C2\SC(=S)NC2=O)cc1	57.1 µM (inactive)	> 100 µM (inactive)	> 100 µM (inactive)	> 100 µM (inactive)	> 100 µM (inactive)	> 100 µM (inactive)	> 100 µM (inactive)	23 µM (inactive)	> 100 µM (inactive)	20.3 µM (inactive)	> 100 µM (inactive)	44.2 µM (inactive)	35.2 µM (inactive)	> 100 µM (inactive)	> 100 µM (inactive)	> 100	> 100 µM (inactive)	> 100 µM (inactive)
O=C1c2ccccc2C(=O)c2oc(Br)cc21	1.94 µM (inactive)	1.09 µM (active)	0.34 µM (active)	1.67 µM (inactive)	1.36 µM (inactive)	0.34 µM (active)	0.132 µM (active)	1.76 µM (inactive)	0.266 µM (active)	1.26 µM (inactive)	0.214 µM (active)	1.38 µM (inactive)	1.69 µM (inactive)	0.244 µM (active)	2.22 µM (inactive)	0.566	1.6 µM (inactive)	1.94 µM (inactive)
Cc1c(-c2ccccc2)c(C#N)c2nnn(-c3cccc(Cl)c3)c(=O)n12	26.2 µM (inactive)	12.6 µM (inactive)	> 100 µM (inactive)	> 100 µM (inactive)	70 µM (inactive)	46.8 µM (inactive)	> 100 µM (inactive)	> 100 µM (inactive)	> 100 µM (inactive)	68.4 µM (inactive)	68.9 µM (inactive)	53.5 µM (inactive)	37.2 µM (inactive)	> 100 µM (inactive)	> 100 µM (inactive)	41.1	30.8 µM (inactive)	33.1 µM (inactive)
O=C1c2ccccc2-c2ccc(NC(=O)C3CCCCC3C(=O)O)cc21 (stereo not given)	> 100 µM (inactive)	> 100 µM (inactive)	> 100 µM (inactive)	> 100 µM (inactive)	> 100 µM (inactive)	> 100 µM (inactive)	> 100 µM (inactive)	> 100 µM (inactive)	> 100 µM (inactive)	> 100 µM (inactive)	> 100 µM (inactive)	> 100 µM (inactive)	> 100 µM (inactive)	> 100 µM (inactive)	> 100 µM (inactive)	> 100	87.3 µM (inactive)	> 100 µM (inactive)
N#CC1(Nc2ccc(-c3ccc(NC4(C#N)CCCC4)cc3)cc2)CCCC1	> 100 µM (inactive)	> 100 µM (inactive)	> 100 µM (inactive)	> 100 µM (inactive)	> 100 µM (inactive)	> 100 µM (inactive)	> 100 µM (inactive)	> 100 µM (inactive)	> 100 µM (inactive)	> 100 µM (inactive)	> 100 µM (inactive)	> 100 µM (inactive)	> 100 µM (inactive)	> 100 µM (inactive)	> 100 µM (inactive)	> 100	77.4 µM (inactive)	> 100 µM (inactive)
OC(c1cc(C23CC4CC(CC(C4)C2)C3)nc2c(Cl)cc(Cl)cc12)C1CCCCN1 (stereo not given)	1.7 µM (inactive)	0.705 µM (active)	2.06 µM (inactive)	1.79 µM (inactive)	1.36 µM (inactive)	1.57 µM (inactive)	1.68 µM (inactive)	1.69 µM (inactive)	1.97 µM (inactive)	1.51 µM (inactive)	1.77 µM (inactive)	2.36 µM (inactive)	1.53 µM (inactive)	1.85 µM (inactive)	2.06 µM (inactive)	1.83	1.58 µM (inactive)	1.73 µM (inactive)
Cc1ccc(CC(Cc2ccccc2C)C(=O)O)c(C(=O)O)c1 (stereo not given)	> 100 µM (inactive)	> 100 µM (inactive)	> 100 µM (inactive)	> 100 µM (inactive)	> 100 µM (inactive)	> 100 µM (inactive)	> 100 µM (inactive)	> 100 µM (inactive)	> 100 µM (inactive)	> 100 µM (inactive)	> 100 µM (inactive)	> 100 µM (inactive)	> 100 µM (inactive)	> 100 µM (inactive)	> 100 µM (inactive)	> 100	> 100 µM (inactive)	> 100 µM (inactive)
C=C1C(=O)C2=CC1CCC(=O)C1(C)CCC(OC(C)=O)C(C)(C)C1CC2O (stereo not given)	3.18 µM (inactive)	0.347 µM (active)	3.66 µM (inactive)	5.32 µM (inactive)	1.6 µM (inactive)	2.42 µM (inactive)	1.4 µM (inactive)	1.76 µM (inactive)	3.73 µM (inactive)	2.93 µM (inactive)	3.03 µM (inactive)	3.81 µM (inactive)	8.45 µM (inactive)	2.64 µM (inactive)	4.11 µM (inactive)	0.552	1.35 µM (inactive)	3.91 µM (inactive)
C[C@H]1CC[C@@H]2[C@@H](C)[C@H]3[C@H](C[C@H]4[C@@H]5CC=C6C[C@@H](O)CC[C@]6(C)[C@H]5CC[C@]34C)N2C1	13.6 µM (inactive)	22.6 µM (inactive)	47.1 µM (inactive)	> 100 µM (inactive)	36.4 µM (inactive)	75.2 µM (inactive)	> 100 µM (inactive)	41.1 µM (inactive)	45.1 µM (inactive)	31.8 µM (inactive)	> 100 µM (inactive)	32.5 µM (inactive)	31.4 µM (inactive)	88.5 µM (inactive)	54.7 µM (inactive)	> 100	18.6 µM (inactive)	36.4 µM (inactive)
O=C(NCCCNCCCCNCCCNC(=O)c1cc(-c2ccccc2)nc2ccccc12)c1cc(-c2ccccc2)nc2ccccc12	20.7 µM (inactive)	1.97 µM (inactive)	1.87 µM (inactive)	2.05 µM (inactive)	3.09 µM (inactive)	2.62 µM (inactive)	1.77 µM (inactive)	20.3 µM (inactive)	3.74 µM (inactive)	1.66 µM (inactive)	17.6 µM (inactive)	1.82 µM (inactive)	2.36 µM (inactive)	3 µM (inactive)	28.4 µM (inactive)	20.1	1.91 µM (inactive)	5.18 µM (inactive)
O=P1(N(CCCl)CCCl)Oc2c(Cl)cc(Cl)c(Cl)c2Cc2c(Cl)c(Cl)cc(Cl)c2O1	> 100 µM (inactive)	35.2 µM (inactive)	> 100 µM (inactive)	30.8 µM (inactive)	27.9 µM (inactive)	47.4 µM (inactive)	67.8 µM (inactive)	64.9 µM (inactive)	59.7 µM (inactive)	96.6 µM (inactive)	71.1 µM (inactive)	55.1 µM (inactive)	64 µM (inactive)	21.4 µM (inactive)	45 µM (inactive)	48	41.4 µM (inactive)	92.3 µM (inactive)
CC12CC(=O)C3C(C(=O)C1)C32C (stereo not given)	> 100 µM (inactive)	> 100 µM (inactive)	> 100 µM (inactive)	> 100 µM (inactive)	> 100 µM (inactive)	> 100 µM (inactive)	> 100 µM (inactive)	> 100 µM (inactive)	> 100 µM (inactive)	> 100 µM (inactive)	> 100 µM (inactive)	> 100 µM (inactive)	> 100 µM (inactive)	> 100 µM (inactive)	> 100 µM (inactive)	> 100	> 100 µM (inactive)	> 100 µM (inactive)
COc1cc(Oc2nc3ccc(C(F)(F)F)cc3nc2-c2ccccc2)cc(OC)c1OC	32.9 µM (inactive)	34 µM (inactive)	33.9 µM (inactive)	> 100 µM (inactive)	10.8 µM (inactive)	> 10 µM (inactive)	40.7 µM (inactive)	5.06 µM (inactive)	48.8 µM (inactive)	13 µM (inactive)	> 100 µM (inactive)	45.8 µM (inactive)	11 µM (inactive)	35.4 µM (inactive)	> 100 µM (inactive)	> 100	21.2 µM (inactive)	37.8 µM (inactive)
O=C(O)CCC(=O)Nc1ccc2c(c1)S(=O)(=O)N(CC(=O)O)C2=O	> 100 µM (inactive)	> 100 µM (inactive)	> 100 µM (inactive)	> 100 µM (inactive)	> 100 µM (inactive)	> 100 µM (inactive)	> 100 µM (inactive)	> 100 µM (inactive)	> 100 µM (inactive)	> 100 µM (inactive)	> 100 µM (inactive)	> 100 µM (inactive)	> 100 µM (inactive)	> 100 µM (inactive)	> 100 µM (inactive)	> 100	> 100 µM (inactive)	> 100 µM (inactive)
